Measured values reported in patent publication US5212166A, “Unsaturated 17β-subsituted 3-carboxy steroids” (Farmitalia Carlo Erba S.r.l., priority 1991, dated 1993).

Biological target: T1, human prostatic 5α-reductase (Homo sapiens, UniProt P31213)
T1 construct: from homogenates of human benign prostatic hypertrophyc tissue as the enzyme source; from tissue; host or cells: human benign prostatic hypertrophic tissue, particulate fraction (nuclei, microsomes and mitochondria)
T1 sequence (P31213 1-254): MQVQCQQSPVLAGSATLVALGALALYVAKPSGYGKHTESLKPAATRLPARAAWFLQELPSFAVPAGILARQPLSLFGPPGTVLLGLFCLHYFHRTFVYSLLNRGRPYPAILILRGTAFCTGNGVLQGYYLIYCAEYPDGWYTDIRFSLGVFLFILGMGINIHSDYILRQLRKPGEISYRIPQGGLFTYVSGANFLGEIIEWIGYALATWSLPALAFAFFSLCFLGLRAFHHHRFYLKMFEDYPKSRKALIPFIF
Assay: Inhibition of 5α-reductase in vitro, particulate fraction of human benign prostatic hypertrophic tissue homogenate
Format: biochemical
Conditions: 1 μM [4-14C]testosterone, 5 mM NADPH, pH 5.5, 30 min at 37° C., read-out: concentration producing 50% inhibition on human prostatic 5α-reductase (IC50)
Experimental: For example, the inhibitory effect of the compounds of the invention on 5α-reductase was determined in vitro, according to the test procedure reported herebelow.
Inhibition of 5α-reductase was evaluated using the particulate fraction (containing nuclei, microsomes and mitochondria) from homogenates of human benign prostatic hypertrophyc tissue as the enzyme source.
The particulate fraction was prepared centrifuging prostate homogenate at 140,000 × g.
The resulting pellet, washed several times, was resuspended in buffer and stored at -80° C. in aliquots containing 10 mg protein/ml.
The assay for 5α-reductase was done in a final volume of 0.5 ml, containing 1 mM dithiothreitol, 40 mM TRIS-HCl buffer pH 5.5, 5 mM NADPH, 1 μM [4-^14 C]testosterone, 0.3 mg protein of the prostate particulate fraction and various concentrations of the inhibitors. […] Radioactivity on the plate was scanned and analyzed from quantitative plots printed by a TLC-analizer (Berthold). The fractional 5α-reduction of testosterone was calculated by relating the ^14 C-radioactivity in the 5α-reduced metabolites 5α-dihydrotestosterone, 3α- and 3β-androstanediols) regions to the total radioactivity in the testosterone and 5α-reduced metabolites regions. […]

SMILES: CC(C)NC(=O)N(C(=O)[C@H]1CC[C@H]2[C@@H]3CC=C4C=C(C(=O)O)CC[C@]4(C)[C@H]3CC[C@]12C)C(C)C [17β-[N-isopropyl-N-(N-isopropylcarbamoyl)carbamoyl]androsta-3,5-diene-3-carboxylic acid]
- IC50: 3 nM
